Test results from publication PMC4526890, “Crystal structures of Mycobacterium tuberculosis GlgE and complexes with non-covalent inhibitors” (Scientific Reports, 2015).

Target: T1, Mtb GlgE (Mycobacterium tuberculosis, UniProt P9WQ17)
T1 construct: full-length wild type, N-terminal His tag (modified pET-28), E. coli T7 Rosetta; homodimer, intermolecular C29 disulfide in crystal
Experiment: X-ray crystal structure, […] Å, crystal soak
Format: binding
Conditions: 10 mM ligand, 1 h soak of maltose co-crystal; acceptor glucan site about 26 Å from M1P site; ternary complex with maltose

T1 sequence (P9WQ17 1-700): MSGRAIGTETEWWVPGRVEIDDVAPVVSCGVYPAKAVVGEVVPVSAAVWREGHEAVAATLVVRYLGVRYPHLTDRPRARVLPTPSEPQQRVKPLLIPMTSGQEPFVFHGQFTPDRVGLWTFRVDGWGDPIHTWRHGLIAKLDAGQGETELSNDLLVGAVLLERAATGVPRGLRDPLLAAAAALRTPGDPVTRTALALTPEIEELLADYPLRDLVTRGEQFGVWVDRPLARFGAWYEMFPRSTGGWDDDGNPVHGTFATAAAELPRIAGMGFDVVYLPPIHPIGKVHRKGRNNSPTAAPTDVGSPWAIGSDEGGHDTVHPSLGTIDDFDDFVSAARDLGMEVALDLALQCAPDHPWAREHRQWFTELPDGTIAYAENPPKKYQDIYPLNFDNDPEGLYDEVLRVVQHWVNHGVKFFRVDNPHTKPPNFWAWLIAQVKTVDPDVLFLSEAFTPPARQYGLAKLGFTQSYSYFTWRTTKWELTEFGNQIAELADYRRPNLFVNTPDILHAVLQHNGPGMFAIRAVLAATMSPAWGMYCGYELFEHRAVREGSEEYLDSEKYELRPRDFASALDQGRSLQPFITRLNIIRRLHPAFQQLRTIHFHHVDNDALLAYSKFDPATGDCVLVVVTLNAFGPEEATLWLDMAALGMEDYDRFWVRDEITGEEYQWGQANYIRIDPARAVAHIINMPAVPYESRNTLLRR

OC[C@H]1O[C@H](O[C@H]2[C@H](O)[C@@H](O)[C@@H](O[C@H]3[C@H](O)[C@@H](O)[C@@H](O[C@H]4[C@H](O)[C@@H](O)[C@@H](O[C@H]5[C@H](O)[C@@H](O)[C@@H](O[C@H]6[C@H](O)[C@@H](O)C(O)O[C@@H]6CO)O[C@@H]5CO)O[C@@H]4CO)O[C@@H]3CO)O[C@@H]2CO)[C@H](O)[C@@H](O)[C@@H]1O (stereo partly shown) [M6, maltohexaose]
X-ray crystal structure, 4.0 Å, crystal soak: ternary complex with Mtb GlgE bound to maltose and maltohexaose (GlgE-M6) was solved
